For the experiment, the system named is invadopodia formation. In words: Invadopodia formation with ROCK inhibitor. Conditions: ROCK inhibition, Supplementary Figure S6C. The format is cell-based.

The results in this text go back to paper PMC7969469 (Cancer research, 2021).

Structures are written as SMILES.

Take `O=S(=O)(c1cccc2cnccc12)N1CCCNCC1` [Fasudil]: the “effect on invadopodia formation” value is “affected neither”.
